From patent publication US5643954A, “Method of preventing and alleviating stress in a healthy mammal in need thereof” (priority 1993, dated 1997) come the findings set out here.

Series [1] is described as follows: orientation motive activity of mice, automated registration of movements. In kind it is in vivo, mice (male). Conditions: for Number of movements in 10 min in register: M ± m. On the procedure: Experiments were conducted in vivo on male mice weighing 18-22 g and male rats weighing 200-250 g, as well as in vitro on the isolated organs: a guinea pig's ileum and a rat's seminal effervesces.

The next series concerns hexenal sleep. The series is described as follows: comparative interaction test with hexenal, rats. Conditions: for Hexanal sleep duration: M ± m. Format: in vivo.
The next series deals with Corazol twitches. The series is described as follows: comparative interaction test with Corazol, rats. Conditions: M ± m. Format: in vivo.
Series [2] has as its system bioelectric activity of rats' brain. The series is described as follows: spontaneous bioelectrical activity of rats' brain (EEG, implanted electrodes). Format: in vivo. Conditions: 90 mg/kg.
Series [3] is classed as in vivo. Conditions: in words.
Series [4] in a line: testings with Corazolin (Corazol), mice. The conditions noted are these: mouse, in vivo; 150 mg/kg of weight; read-out: death of the animals. Format: in vivo.
The test system of the next series is Corazol convulsions. In words: testings with Corazolin (Corazol), mice. Format: in vivo. Conditions: 150 mg/kg of weight.

As for `NCC(CC(=O)O)c1ccccc1` (centres unmarked) [phenibut, reference compound], the “Number of movements in 10 min in register” value in series [1] (100 mg/kg intraperitoneally) amounted to 434 ± 4.4; in series [1] (200 mg/kg intraperitoneally), 186 ± 8.7; in series [1] (500 mg/kg intraperitoneally) it was 19 ± 3.0. The motor activity entry in series [1] (in words) is recorded as “sharply inhibit motor activity as a dose is increased”. Moreover, the results for the Hexanal sleep duration in the series on hexenal sleep (100 mg/kg) and in the series on hexenal sleep (200 mg/kg) were 110.0 ± 8.3 min and 130.0 ± 8.5 min, respectively. In the series with hexenal sleep (in words), the hexenal sleep result is “prolong hexenal sleep”. In addition, the “Corazol twitches, latent period” value was found to be 53.0 ± 5.4 min in the series on Corazol twitches (100 mg/kg) and 50.0 ± 2.8 min with Corazol twitches (200 mg/kg). The “Maximal effect appearance time from the start of experiment” value in series [2] is recorded as 40 min. The Nature of effect result in series [2] is reported as “Permanent”. In addition, the “Nature of effect, effective for” value in series [2] is listed as “over 3 hrs”. In series [2] (M ± m), the “Index, fast activ.” value is listed as 77 ± 0.9%. The “Index, slow activ.” value in series [2] (M ± m) is reported as 87 ± 3.1%. The “tonico-extensor component of Corazol and strychnine twitches and electrical shock” value in series [3] was “reduce the tonico-extensor component of Corazol and strychnine twitches and electrical shock”.
As for `C1CCc2nnnn2CC1` [Corazolin, reference compound], in series [4], the mortality was 100%. For the same compound, the “time to death of the animals” value with Corazol convulsions was in the range of 2 to 4 min.
